Read-outs that look alike come from different tables or passages of the source. Marks after values point to notes of the source that are not given here.
What was measured:
ob/ob mice = conditions: for Serum triglycerides T0 + 10: after 10 days of treatment once a day, 100 mg/kg of each drug; for Serum triglycerides T0 + 10 / Serum triglycerides T0: mean ± sem, n=10; for Serum triglycerides T0: beginning of study (T0, baseline), groups later treated once a day with 100 mg/kg of each drug
Method: Studies were designed to evaluate the effects of fenofibrate, a PPARα agonist, and metformin as a combination therapy, on triglycerides level in ob/ob mice.
Male homozygous C57BL/Ks/Ola/Hsd/lep ob/ob mice were stabilized for 2 weeks in the animal facilities in a temperature-, humidity- and light-controlled room (21-23° C., 12-12 h light-dark cycle). […] After acclimatization, they were randomized into groups of 10 based on body weight, as follows:
Met 100=mice treated once a day with metformin, 100 mg/kg
Feno 100=mice treated once a day with fenofibrate, 100 mg/kg
Feno100-Met100=mice treated once a day with fenofibrate, 100 mg/kg and metformin, 100 mg/kg.
Serum triglycerides (expressed in g/l) were measured at the beginning and the end of the study for each group.
Statistics: All data were subjected to covariance analysis followed by Tukey test.

db/db mice = conditions: for Triglycerides % var. T0/T15: 14 days gavage; for Triglycerides T0: T0 (baseline); for Triglycerides T0 / Triglycerides T15: mean ± SEM; for Triglycerides T15: T15 after 14 days gavage
Method: Studies were designed to evaluate the effects of fenofibrate, a PPARα agonist, and metformin as a combination therapy, on triglycerides level in db/db mice.
Male 11/12 weeks old […] J Rj-db (db/db) mice (Janvier, France) were housed in a temperature (19.5-24.5° C.), relative humidity (40-70%) and 12-12 h light-dark cycle (light 7:00 a.m. to 7:00 p.m.)-controlled room, with ad libitum access to filtered (0.22 μm) tap-water and irradiated pelleted laboratory chow (ref. A04, U.A.R., France) throughout the study. They were housed 5 per cage and a 21-day acclimatization period was observed.
The mice were treated during 14 consecutive days (T1 to T14), with morning and afternoon gavages with the various treatments as described below.
At T15, the mice were weighed and blood samples collected without anticoagulant by retro-orbital puncture under CO2/O2 anesthesia.
Triglycerides were measured at T0 and T15 using the multi-parametric analyzer.
Veh/Veh=Vehicle in morning/Vehicle in the afternoon
A300/Veh=metformin, 300 mg/kg in the morning/Vehicle in the afternoon
B100/B100=fenofibrate, 100 mg/kg in the morning/fenofibrate, 100 […]
A300B100/B100=metformin, 300 mg/kg in the morning, and fenofibrate, 100 mg/kg in the morning/fenofibrate, 100 mg/kg in the afternoon
A100/Veh=metformin, 100 mg/kg in the morning/Vehicle in the afternoon
B30/B30=fenofibrate, 30 mg/kg in the morning/fenofibrate, 30 mg/kg in the afternoon
A100B30/B30=metformin, 100 mg/kg in the morning, and fenofibrate, 30 mg/kg […]/fenofibrate, 30 mg/kg in the afternoon

Zucker rats = conditions: obese Zucker rats, 30 days, fenofibrate 30 mg/kg p.o. once daily and/or metformin 150 mg/kg p.o. twice daily; for Body weight gain: mean ± SEM, n=8
Method: Studies were designed to evaluate the effects of fenofibrate, a PPARα agonist, and metformin as a combination therapy, on body weight in Zucker rats.
Male homozygous Zucker rats of 9 to 11 weeks of age and their lean controls were randomised into groups of 8, based on body weight and fasting plasma insulin levels.
The experimental groups were: • Lean rats, untreated; • Obese rats, treated with the vehicle p.o., twice daily • Obese rats, treated with Fenofibrate, 30 mg/kg, p.o., once daily • Obese rats, treated with Metformin, 150 mg/kg, p.o., twice daily • Obese rats, treated with Fenofibrate, 30 mg/kg, p.o., once daily and metformin, 150 mg/kg, p.o., twice daily.
Body weight was recorded every day during 30 days.

[1] = metformin 100 mg/kg morning and/or fenofibrate 30 mg/kg twice daily
[2] = metformin 300 mg/kg morning and/or fenofibrate 100 mg/kg morning and afternoon
[3] = high-dose groups: metformin 300 mg/kg morning and/or fenofibrate 100 mg/kg morning and afternoon
[4] = low-dose groups: metformin 100 mg/kg morning and/or fenofibrate 30 mg/kg twice daily

SMILES | Serum triglycerides T0 + 10 (ob/ob mice) | Serum triglycerides T0 (ob/ob mice) | Triglycerides % var. T0/T15 (db/db mice; [1]) | Triglycerides % var. T0/T15 (db/db mice; [2]) | Triglycerides T0 (db/db mice; [3]) | Triglycerides T0 (db/db mice; [4]) | Triglycerides T15 (db/db mice; [1]) | Triglycerides T15 (db/db mice; [2]) | Body weight gain (% of change vs vehicle treated group) (Zucker rats) | Body weight gain (Zucker rats) | Effect on triglycerides level (in words) (ob/ob mice; 10 days, 100 mg/kg once a day) | Effect on triglycerides level (in words) (db/db mice; 14 days treatment)
CC(C)OC(=O)C(C)(C)Oc1ccc(C(=O)c2ccc(Cl)cc2)cc1 [Fenofibrate, fenofibrate] | 0.69 ± 0.03 g/L | 0.72 ± 0.06 g/L | −42.3* % | −53.5* % | 1.89 ± 0.13 g/L | 1.72 ± 0.12 g/L | 0.97 ± 0.08 g/L | 0.85 ± 0.08 g/L | −26% | 52.0 ± 5.8 g | – | –
CN(C)C(=N)N=C(N)N [Metformin, metformin] | 0.74 ± 0.04 g/L | 0.68 ± 0.03 g/L | 7.3° % | −3.3° % | 1.81 ± 0.14 g/L | 1.68 ± 0.12 g/L | 1.79 ± 0.16° g/l | 1.67 ± 0.06 g/L | −5% | 67.2 ± 4.0 g | no effects | no reduction in triglycerides level

Source: patent US20060142397A1, “Use of a pparalpha agonist and metormin for decreasing the serum triglycerides” (priority 2002, published 2006)
